Assay results: patent US11873291B2, “Quinoline cGAS antagonist compounds” (ImmuneSensor Therapeutics, Inc., priority 2020, dated 2024)
Where two headings read alike, the source gives them in different places.

Key:
[1] = target: T1, recombinant human cGAS (aa147-522) (Homo sapiens, UniProt Q8N884); assay: In vitro inhibition assay of cGAS activity (ATP consumption, KinaseGlo Max); format: biochemical
T1 construct: recombinant human cGAS (aa147-522); His6-SUMO (cleaved yes); made in house; host or cells: E. coli BL21/pLys
Method in brief: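 IC50 came from plotting % ATP consumption against log compound concentration, with leftover ATP detected by KinaseGlo Max chemiluminescence. Reactions ran 20 min at 37 °C with 1.5 μg/mL human cGAS (aa147-522), 6.6 μM ATP, 0.1 mM GTP and 0.01 mg/mL DNA at pH 7.5.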

[2] = tested on: cGAS activity in Reporter THP1 cell line; assay: Cellular assay to measure cGAS activity: ISRE-Gaussia luciferase reporter THP1 cells transfected with ISD; format: cell-based; conditions: Homo sapiens
Method in brief: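 THP1 ISRE-Gaussia luciferase reporter cells (0.3×10^6/well) pre-incubated 5 min with compound serial dilutions, then lipofectamine-transfected with 2 μg/mL ISD (45 bp DNA) or mock. Secreted luciferase read 16 h later with 1 μM coelenterazine at pH 6.5; IC50 from fold increase over mock. Specificity counter-screen used 2 μg/mL poly(I:C) or Sendai virus 50 Unit/mL.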

[3] = Table 3, read-out: cGAS Inhibition Results IC50
[4] = THP-1, Table 4, Gaussia luciferase
[5] = THP-1, untitled table after Table 4 (continuation)

T1 sequence (Q8N884 147-522): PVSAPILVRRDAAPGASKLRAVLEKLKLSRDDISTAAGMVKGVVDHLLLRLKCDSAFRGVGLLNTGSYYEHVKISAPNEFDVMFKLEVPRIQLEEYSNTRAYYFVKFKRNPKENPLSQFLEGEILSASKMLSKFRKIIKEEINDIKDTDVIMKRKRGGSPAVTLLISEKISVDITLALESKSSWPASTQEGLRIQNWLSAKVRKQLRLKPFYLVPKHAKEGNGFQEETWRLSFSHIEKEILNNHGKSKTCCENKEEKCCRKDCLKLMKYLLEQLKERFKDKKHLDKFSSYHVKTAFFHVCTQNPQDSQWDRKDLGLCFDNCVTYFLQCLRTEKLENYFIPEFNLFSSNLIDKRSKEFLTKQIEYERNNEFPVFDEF

Row | Structure (SMILES) | IC50 [1, 3] [µM] | IC50 [2, 4] [µM] | IC50 [2, 5] [µM] | IC50 ([1]; Table 2, read-out: cGAS Inhibition Results IC50) [µM]
1 | CCOC(=O)[C@@H]1CCCN1c1cc(-n2ccnc2)c2ccc(Cl)c(Cl)c2n1 [I-594] | 2 to 30 | 2 to 10 |  | 
2 | COC(=O)CCN(C)C[C@@H]1CCCN1c1cc(-n2ccnc2)c2ccc(Cl)c(Cl)c2n1 [I-755, methyl (S)-3-(((1-(7,8-dichloro-4-(1H-imidazol-1-yl)quinolin-2-yl)pyrrolidin-2-yl)methyl)(methyl)amino)propanoate] | > 30 |  | > 10 | 
3 | COc1cc(C(=O)O)cc(-c2cc(-n3ccnc3)c3ccc(Cl)cc3n2)c1 [I-24, 3-(7-chloro-4-(1H-imidazol-1-yl)quinolin-2-yl)-5-methoxybenzoic acid] |  | 2 to 10 |  | < 2
4 | N[C@H]1CCN(c2cc(-n3ccnc3)c3ccc(Cl)c(Cl)c3n2)C1 [I-765, (S)-1-(7,8-dichloro-4-(1H-imidazol-1-yl)quinolin-2-yl)pyrrolidin-3-amine] | 2 to 30 |  | 2 to 10 | 
5 | COC(=O)COCC[C@@H]1CCCN1c1cc(-n2ccnc2)c2ccc(Cl)c(Cl)c2n1 [I-669] | 2 to 30 | < 2 |  | 
6 | CC1CCN(c2cc(-n3ccnc3)c3ccc(Cl)c(Cl)c3n2)C1C(=O)O (stereo not shown) [I-473] | < 2 | < 2 |  | 
7 | NC(=O)COC[C@@H]1CCCN1c1cc(-n2ccnc2)c2ccc(Cl)c(Cl)c2n1 [I-760, (S)-2-((1-(7,8-dichloro-4-(1H-imidazol-1-yl)quinolin-2-yl)pyrrolidin-2-yl)methoxy)acetamide] | < 2 |  | > 10 | 
8 | O=C(O)CCOCC(Cc1ccccc1)Nc1cc(-n2ccnc2)c2ccc(Cl)c(Cl)c2n1 (stereo not shown) [I-695] | 2 to 30 | 2 to 10 |  | 
9 | O=C(O)CCOCCN(CCO)c1cc(-n2ccnc2)c2ccc(Cl)c(Cl)c2n1 [I-838] | < 2 |  | > 10 | 
10 | COc1ccc2c(-n3ccnc3)cc(N3CCC[C@H]3COCCC(=O)O)nc2c1Cl [I-856] | < 2 |  | 2 to 10 | 
11 | O=C(O)CCOCc1ccc(Cl)c(-c2cc(-n3ccnc3)c3ccc(Cl)c(Cl)c3n2)c1 [I-878] | < 2 |  | < 2 | 
12 | CN(CCCOc1ccccc1C(=O)O)c1cc(-n2ccnc2)c2ccc(Cl)c(Cl)c2n1 [I-846] | < 2 |  | < 2 | 
13 | O=C(O)COC[C@@H](O)[C@@H]1CCCN1c1cc(-n2ccnc2)c2ccc(Cl)c(Cl)c2n1 [I-725, 2-((S)-2-((S)-1-(7,8-dichloro-4-(1H-imidazol-1-yl)quinolin-2-yl)pyrrolidin-2-yl)-2-hydroxyethoxy)acetic acid] | < 2 | > 10 |  | 
14 | NC(=O)CNC(=O)C[C@@H]1CCCN1c1cc(-n2ccnc2)c2ccc(Cl)c(Cl)c2n1 [I-539] | < 2 | 2 to 10 |  | 
15 | O=C(O)CCOCC1CCCCCN1c1cc(-n2ccnc2)c2ccc(Cl)c(Cl)c2n1 (stereo not shown) [I-865] | < 2 |  | < 2 | 
16 | O=C(O)CCOC[C@@H]1CCCCN1c1cc(-n2ccnc2)c2ccc(Cl)c(Cl)c2n1 [I-789] | < 2 |  | < 2 | 
17 | O=C(OC(C(F)(F)F)C(F)(F)F)[C@@H]1[C@@H](O)CCN1c1cc(-n2ccnc2)c2ccc(Cl)c(Cl)c2n1 [I-663] | < 2 | < 2 |  | 
18 | O=C(O)CCOC[C@@H]1CCCN1c1cc(-c2cn[nH]c2)c2cc(Cl)cc(Cl)c2n1 [I-853] | < 2 |  | < 2 | 
19 | CC(C)OC(=O)[C@@H]1CCCN1c1cc(-n2ccnc2)c2ccc(Cl)c(Cl)c2n1 [I-595] | 2 to 30 | 2 to 10 |  | 
20 | O=C(O)CCOCC1(CNc2cc(-n3ccnc3)c3ccc(Cl)c(Cl)c3n2)CC1 [I-829] | < 2 |  | 2 to 10 | 
21 | COC(=O)[C@@H]1CCCN1c1cc(-n2ccnc2)c2ccc(Cl)c(Cl)c2n1 [I-593] | 2 to 30 | 2 to 10 |  | 
22 | O=C(O)COC[C@@H]1C[C@H](F)CN1c1cc(-n2ccnc2)c2ccc(Cl)c(Cl)c2n1 [I-706] | < 2 | < 2 |  | 
23 | CN(CCOc1ccccc1C(=O)O)c1cc(-n2ccnc2)c2ccc(Cl)c(Cl)c2n1 [I-842] | < 2 |  | 2 to 10 | 
24 | COC(=O)[C@@H]1[C@@H]2C[C@@H]2CN1c1cc(-n2ccnc2)c2ccc(Cl)c(Cl)c2n1 [I-577] | 2 to 30 | 2 to 10 |  | 
25 | CO[C@H]1C[C@@H](COCCC(=O)O)N(c2cc(-n3ccnc3)c3ccc(Cl)c(Cl)c3n2)C1 [I-797] | < 2 |  | < 2 | 
26 | COC(=O)[C@@H]1C[C@H](F)CN1c1cc(-n2ccnc2)c2ccc(Cl)c(Cl)c2n1 [I-575] | 2 to 30 | 2 to 10 |  | 
27 | O=C(O)Cc1cccc(OC[C@@H]2CCCN2c2cc(-n3ccnc3)c3ccc(Cl)c(Cl)c3n2)c1 [I-736] | < 2 | < 2 |  | 
28 | O=C(O)CCNC(=O)[C@@H]1[C@@H](O)CCN1c1cc(-n2ccnc2)c2ccc(Cl)c(Cl)c2n1 [I-784, 3-((2S,3S)-1-(7,8-dichloro-4-(1H-imidazol-1-yl)quinolin-2-yl)-3-hydroxypyrrolidine-2-carboxamido)propanoic acid] | < 2 |  | > 10 | 

More lines, now with the values ahead:

Row | IC50 [1, 3] [µM] | IC50 [2, 4] [µM] | IC50 [2, 5] [µM] | IC50 ([1]; Table 2, read-out: cGAS Inhibition Results IC50) [µM] | Structure (SMILES)
29 | < 2 | < 2 |  |  | COC(=O)COC[C@@H]1CCCN1c1cc(-n2ccnc2)c2ccc(Cl)c(Cl)c2n1 [I-667, methyl (S)-2-((1-(7,8-dichloro-4-(1H-imidazol-1-yl)quinolin-2-yl)pyrrolidin-2-yl)methoxy)acetate]
30 | < 2 |  | < 2 |  | O=C(O)C1CCCC1OC[C@@H]1CCCN1c1cc(-n2ccnc2)c2ccc(Cl)c(Cl)c2n1 (stereo partly shown) [I-816]
31 | < 2 | > 10 |  |  | COC(=O)CCOC[C@@H]1CN(c2cc(-c3cn[nH]c3)c3ccc(Cl)c(Cl)c3n2)CCO1 [I-752]
32 | < 2 |  | < 2 |  | O=C(O)CCOCC12CC(CN1c1cc(-n3ccnc3)c3ccc(Cl)c(Cl)c3n1)C2 [I-800]
33 | < 2 | < 2 |  |  | O=C(O)CCOC[C@@H]1C[C@@H]2C[C@@H]2N1c1cc(-n2ccnc2)c2ccc(Cl)c(Cl)c2n1 [I-707]
34 | < 2 | < 2 |  |  | O=C(O)CCOC[C@@H]1C[C@@H](OCc2ccccc2)CN1c1cc(-n2ccnc2)c2ccc(Cl)c(Cl)c2n1 [I-712]
35 | < 2 | < 2 |  |  | O=C(O)c1ccn(C[C@@H]2CCCN2c2cc(-n3ccnc3)c3ccc(Cl)c(Cl)c3n2)c1 [I-732]
36 | < 2 |  | < 2 |  | O=C(O)c1ccccc1OCCNc1cc(-n2ccnc2)c2ccc(Cl)c(Cl)c2n1 [I-886]
37 | < 2 | < 2 |  |  | CC(COC[C@@H]1CCCN1c1cc(-n2ccnc2)c2ccc(Cl)c(Cl)c2n1)C(=O)O (stereo partly shown) [I-719]
38 | < 2 |  | < 2 |  | O=C(O)CCOCc1cccc(-c2cc(-n3ccnc3)c3ccc(Cl)c(Cl)c3n2)c1 [I-840, 3-((3-(7,8-dichloro-4-(1H-imidazol-1-yl)quinolin-2-yl)benzyl)oxy)propanoic acid]
39 | < 2 |  | 2 to 10 |  | O=C(O)Cc1ccccc1CNc1cc(-n2ccnc2)c2ccc(Cl)c(Cl)c2n1 [I-888]
40 | < 2 |  | 2 to 10 |  | O=C(O)C1CCCCC1OC[C@@H]1CCCN1c1cc(-n2ccnc2)c2ccc(Cl)c(Cl)c2n1 (stereo partly shown) [I-815]
41 | < 2 |  | > 10 |  | O=C(O)C[C@@H]1[C@@H](O)CCN1c1cc(-n2ccnc2)c2ccc(Cl)c(Cl)c2n1 [I-785, 2-((2R,3S)-1-(7,8-dichloro-4-(1H-imidazol-1-yl)quinolin-2-yl)-3-hydroxypyrrolidin-2-yl)acetic acid]
42 | < 2 |  | > 10 |  | O=C(O)C(O)CC[C@@H]1CCCN1c1cc(-n2ccnc2)c2ccc(Cl)c(Cl)c2n1 (stereo partly drawn) [I-817, 4-((S)-1-(7,8-dichloro-4-(1H-imidazol-1-yl)quinolin-2-yl)pyrrolidin-2-yl)-2-hydroxybutanoic acid]
43 | < 2 |  | > 10 |  | O=C(O)CCOC1CCN(c2cc(-n3ccnc3)c3ccc(Cl)c(Cl)c3n2)CC1 [I-864]
44 | < 2 | 2 to 10 |  |  | O=C(O)c1cnn(C[C@@H]2CCCN2c2cc(-n3ccnc3)c3ccc(Cl)c(Cl)c3n2)c1 [I-728]
